The values that follow come from patent US10047084B2, “Imidazolone derivatives, pharmaceutical compositions and uses thereof” (BEIJING FORELANDPHARMA CO. LTD., priority 2013, dated 2018).

The structures appear in SMILES notation.

In one data set the target is mTOR kinase (Homo sapiens (Human), UniProt P42345). The data set is described as follows: mTOR kinase activity assay (TR-FRET, GFP-4EBP1 substrate). Format: biochemical. The conditions noted are these: read-out: Enzyme (mTOR) IC50. For orientation: Time-resolved FRET reads energy transfer from a long-lived donor to a nearby acceptor.
The target of data set [1] is PI3K-alpha (PIK3CA/PIK3R1) (Homo sapiens (Human), UniProt P42336). The data set is described as follows: PI3K-alpha enzyme activity assay (ADP Glo). Format: biochemical. The conditions noted are these: read-out: Activity of inhibiting PI3K enzyme IC50. From the text:
3. PI3K-alpha Enzyme Activity Assay: PI3K alpha-ADP Glo Assay was employed. In the determination of PI3K enzyme activity, the detection kit supplied by Promega (Promega, Cat #: V9101) was used to detect the inhibition effect of the compounds on the activity of PI3K enzyme. The adenosine diphosphate produced during the whole enzymic reactions was quantified. The resulting values were used to calculate the activity of PI3K (Table 1).
3.1 Detection reagents: PIK3CA/PIK3R1 purchased from Invitrogen (Cat #: PV4788): The active kinase was diluted with kinase diluent III; and mixed with bovine serum albumin (BSA) in a ratio of 1:4 (5×dilution). The final BSA concentration was 50 ng/ml; and the compositions of Kinase Detection Solution I were: 25 mM MOPS, pH7.2, 12.5 mM β-glycerophosphate, 25 mM magnesium chloride, 5 mM EGTA, and 2 mM EDTA. Before use, 0.25 mM DTT was added to Kinase Detection Solution I; 250 μM adenosine triphosphate (ATP) Detection solution: 0.55 mg of ATP was dissolved in 4 ml of Kinase Detection Solution I, subdivided in 200 μl/vial and stored at −20° C. Substrate: Phosphatidylinositol (4,5) bis-phosphate; this substrate was diluted with Kinase Detection Solution I to a concentration of 125 μM. Final concentrations were: 10 μM PIP2, 10 μM ATP, 1% DMSO, and 0.0005-10 μM compounds.
a) Experimental Procedure: • 3.2.1 50 μL of the compounds diluted with dimethyl sulfoxide (DMSO) at a concentration of 100 μM were added to the 384-well dilution plate. The compounds were diluted with dimethyl sulfo de (DMSO) in a ratio of 1:3 (10 dilution concentrations plus 1 zero concentration). • 3.2.2 5 μL of the diluted compounds were transferred to the corresponding 384-well black Proxi plate (containing 47.5 μL of detection solution/well), and shaked for several seconds. • 3.2.3 2 μL of 2.5×PI3K working solution was added to 384-well black Proxi plate. • 3.2.4 2 μL of the diluted compounds were added to the detection plate (3 wells for each concentration). • 3.2.5 The plate was incubated at room temperature for 2 h. • 3.2.6 5 μL of ADP Glo Reagent was added. • 3.2.7 The plate was incubated at room temperature for 40 minutes. • 3.2.8 10 μL of the kinase detection reagent was added. • 3.2.9 The plate was incubated at room temperature for 40 minutes. • 3.2.10 The activity was detected by using Envision Reader.
The inhibition of the mTOR […] activity by the compounds ranges in 0.5 to several hundreds nanomoles, see Table 1.
In general terms: ADP-Glo turns the ADP formed in a reaction into a luminescent signal.

Data set [2] is described as follows: Pharmacokinetics after oral administration, Balb/c mice. The following applies: mouse, plasma, 10 mg/kg. Type of data set: in vivo. The protocol: (§1) 4. […] Blood was sampled before the administration and at 0.25 h, 0.5 h, 1 h, 2 h, 4 h, 6 h, 8 h, and 24 h after the administration.
The nature of data set [3]: Pharmacokinetics after oral administration, SD rat. Format: in vivo. The conditions noted are these: plasma, 10 mg/kg. The protocol:
as §1

mTOR kinase, sequence (P42345 1360-2549): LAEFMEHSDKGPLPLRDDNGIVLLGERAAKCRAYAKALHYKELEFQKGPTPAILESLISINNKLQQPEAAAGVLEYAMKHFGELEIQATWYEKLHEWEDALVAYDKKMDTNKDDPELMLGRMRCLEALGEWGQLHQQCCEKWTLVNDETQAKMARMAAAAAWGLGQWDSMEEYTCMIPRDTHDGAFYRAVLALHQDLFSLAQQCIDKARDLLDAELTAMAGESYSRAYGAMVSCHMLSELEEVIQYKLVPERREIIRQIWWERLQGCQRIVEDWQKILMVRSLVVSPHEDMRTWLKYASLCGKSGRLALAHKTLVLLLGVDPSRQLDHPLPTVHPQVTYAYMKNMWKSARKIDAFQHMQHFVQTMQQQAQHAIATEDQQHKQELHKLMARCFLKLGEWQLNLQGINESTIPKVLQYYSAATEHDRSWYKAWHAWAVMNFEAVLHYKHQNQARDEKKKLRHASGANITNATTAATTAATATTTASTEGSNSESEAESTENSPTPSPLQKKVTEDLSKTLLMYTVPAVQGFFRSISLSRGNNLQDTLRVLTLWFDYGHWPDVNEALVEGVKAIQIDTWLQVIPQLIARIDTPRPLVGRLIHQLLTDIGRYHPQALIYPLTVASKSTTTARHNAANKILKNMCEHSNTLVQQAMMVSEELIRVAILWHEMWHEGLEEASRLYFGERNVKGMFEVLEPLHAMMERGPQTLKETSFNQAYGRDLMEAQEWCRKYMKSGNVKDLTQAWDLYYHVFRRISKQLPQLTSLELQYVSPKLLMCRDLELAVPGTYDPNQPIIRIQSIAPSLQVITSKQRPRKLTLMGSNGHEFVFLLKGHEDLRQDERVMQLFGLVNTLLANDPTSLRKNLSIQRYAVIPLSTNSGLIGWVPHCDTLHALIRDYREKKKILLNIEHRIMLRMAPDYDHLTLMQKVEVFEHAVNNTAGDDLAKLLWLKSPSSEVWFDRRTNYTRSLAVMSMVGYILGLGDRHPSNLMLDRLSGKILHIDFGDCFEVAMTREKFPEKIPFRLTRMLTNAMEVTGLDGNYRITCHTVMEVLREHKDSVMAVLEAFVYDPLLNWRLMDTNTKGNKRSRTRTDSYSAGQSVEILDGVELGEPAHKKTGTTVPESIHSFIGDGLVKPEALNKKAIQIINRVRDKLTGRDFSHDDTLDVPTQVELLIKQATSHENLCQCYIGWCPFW
PI3K-alpha (PIK3CA/PIK3R1), sequence (P42336 whole entry, looked up): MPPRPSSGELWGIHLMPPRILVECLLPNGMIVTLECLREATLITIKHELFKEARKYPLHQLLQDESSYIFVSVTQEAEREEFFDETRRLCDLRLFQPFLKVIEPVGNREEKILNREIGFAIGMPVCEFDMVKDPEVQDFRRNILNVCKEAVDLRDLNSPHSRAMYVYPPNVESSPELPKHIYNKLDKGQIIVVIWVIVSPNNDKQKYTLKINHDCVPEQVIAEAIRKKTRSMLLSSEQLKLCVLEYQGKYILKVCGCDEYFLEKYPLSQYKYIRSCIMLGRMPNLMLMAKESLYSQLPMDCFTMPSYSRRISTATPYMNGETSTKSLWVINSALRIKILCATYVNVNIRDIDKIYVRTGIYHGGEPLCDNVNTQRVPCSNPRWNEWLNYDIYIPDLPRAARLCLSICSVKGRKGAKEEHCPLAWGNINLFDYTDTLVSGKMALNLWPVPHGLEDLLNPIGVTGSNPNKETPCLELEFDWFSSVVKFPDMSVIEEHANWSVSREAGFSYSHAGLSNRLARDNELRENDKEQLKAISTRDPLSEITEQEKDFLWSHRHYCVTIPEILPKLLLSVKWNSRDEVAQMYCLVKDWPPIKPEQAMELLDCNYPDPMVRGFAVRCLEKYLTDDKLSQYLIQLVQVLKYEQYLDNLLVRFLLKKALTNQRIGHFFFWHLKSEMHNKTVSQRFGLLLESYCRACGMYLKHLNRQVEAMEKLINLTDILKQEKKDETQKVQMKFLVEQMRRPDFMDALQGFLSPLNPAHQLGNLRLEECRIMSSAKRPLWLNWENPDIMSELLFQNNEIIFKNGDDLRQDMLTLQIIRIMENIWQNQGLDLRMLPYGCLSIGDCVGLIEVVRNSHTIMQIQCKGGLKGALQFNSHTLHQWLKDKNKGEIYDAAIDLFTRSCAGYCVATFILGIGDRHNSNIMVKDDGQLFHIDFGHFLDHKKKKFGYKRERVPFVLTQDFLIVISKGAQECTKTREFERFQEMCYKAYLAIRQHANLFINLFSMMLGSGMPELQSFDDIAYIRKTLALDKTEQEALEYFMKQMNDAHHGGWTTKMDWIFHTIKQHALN
PI3K-alpha (PIK3CA/PIK3R1), sequence (P27986 whole entry partner, looked up): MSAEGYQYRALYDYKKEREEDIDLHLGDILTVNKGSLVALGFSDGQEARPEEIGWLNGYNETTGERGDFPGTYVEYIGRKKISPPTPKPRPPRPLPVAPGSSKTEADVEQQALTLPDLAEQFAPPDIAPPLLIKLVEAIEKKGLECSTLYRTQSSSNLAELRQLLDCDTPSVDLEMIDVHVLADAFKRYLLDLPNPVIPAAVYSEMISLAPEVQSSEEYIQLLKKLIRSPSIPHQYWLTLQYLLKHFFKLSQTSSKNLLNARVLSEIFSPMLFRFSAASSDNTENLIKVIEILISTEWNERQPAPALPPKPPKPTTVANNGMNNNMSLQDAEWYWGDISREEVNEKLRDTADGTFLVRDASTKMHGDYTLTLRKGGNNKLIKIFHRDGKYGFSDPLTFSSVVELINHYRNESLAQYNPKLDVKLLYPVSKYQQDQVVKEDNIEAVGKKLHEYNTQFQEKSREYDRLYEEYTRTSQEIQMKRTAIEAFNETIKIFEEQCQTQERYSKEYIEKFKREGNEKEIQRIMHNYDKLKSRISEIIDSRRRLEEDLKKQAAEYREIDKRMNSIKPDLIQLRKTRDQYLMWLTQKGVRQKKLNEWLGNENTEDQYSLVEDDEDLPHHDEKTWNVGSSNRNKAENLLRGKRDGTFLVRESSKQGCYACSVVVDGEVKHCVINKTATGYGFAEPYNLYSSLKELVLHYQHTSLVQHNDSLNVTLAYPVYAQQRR

As to `Cn1cc(-c2ccc(-c3ccc4ncc5c(c4c3)n([C@H]3CC[C@@H](O)CC3)c(=O)n5C)cn2)cn1` [Example 18, 1-((1s,4s)-4-hydroxycyclohexyl)-3-methyl-8-(6-(1-methyl-1H-pyrazol-4-yl)pyridin-3-yl)-1H-imidazo[4,5-c]quinolin-2(3H)-one], on mTOR kinase, the IC50 is under 10 nM. Further, the IC50 in data set [1] is under 10 nM. For the same compound, in data set [2], the AUC was in the range of 10000 to 100000 ng·h/mL, the Cmax lay in the range of 5000 to 10000 ng/mL and the half-life was 60 to 240 min. Besides, the concentration at 6 h in data set [2] (6 h) lay in the range of 1 to 10 µM.
On to `Cn1cc(-c2ccc(-c3ccc4ncc5c(c4c3)n(C3CCCN(S(C)(=O)=O)C3)c(=O)n5C)cn2)cn1` (centres unmarked) [Example 3, 3-methyl-8-(6-(1-methyl-1H-pyrazol-4-yl)pyridin-3-yl)-1-(1-(methanesulfonyl)piperidin-3-yl)-1H-imidazo[4,5-c]quinolin-2(3H)-one], for which the IC50 (at mTOR kinase; in data set [1]) was under 10 nM in each case.
For `Cn1cc(-c2ccc(-c3ccc4ncc5c(c4c3)n([C@H]3CCN(S(C)(=O)=O)C3)c(=O)n5C)cn2)cn1` [Example 28, (S)-3-methyl-8-(6-(1-methyl-1H-pyrazol-4-yl)pyridin-3-yl)-1-(1-(methanesulfonyl)pyrrolidin-3-yl)-1H-imidazo[4,5-c]quinolin-2(3H)-one], on mTOR kinase, the IC50 is under 10 nM. Besides, in data set [1], the IC50 was under 10 nM. In data set [3], the AUC is 10000 to 100000 ng·h/mL, the Cmax lay in the range of 800 to 4000 ng/mL, the half-life lay within 240 to 600 min and the concentration at 6 h was 1 to 10 µM.
As to `Cn1cc(-c2ccc(-c3ccc4ncc5c(c4c3)n([C@@H]3CCCN(S(C)(=O)=O)C3)c(=O)n5C)cn2)cn1` [Example 31, (R)-3-methyl-8-(6-(1-methyl-1H-pyrazol-4-yl)pyridin-3-yl)-1-(1-(methanesulfonyl)piperidin-3-yl)-1H-imidazo[4,5-c]quinolin-2(3H)-one], the IC50 on mTOR kinase is under 10 nM. In addition, the IC50 in data set [1] is under 10 nM. In data set [3], this compound showed an AUC of 10000 to 100000 ng·h/mL, a Cmax of 800 to 4000 ng/mL, a half-life of 240 to 600 min and a concentration at 6 h of 1 to 10 µM.

Usually IC50 stands for the point on the concentration scale where inhibition reaches its midpoint. The term AUC denotes the area under the concentration-time curve, a measure of exposure. Read a high AUC as high exposure. The Cmax is the highest concentration seen after dosing. The term half-life denotes the time needed for the level to fall by half in the phase considered.
